Test results from patent US12723235B2, “Method for expanding hepatocyte in vitro and application” (Center for Excellence in Molecular Cell Science, Chinese …, priority 2018, dated 2026).
Where two headings read alike, the source gives them in different places.

B1: Wnt3a purified protein: Purified Wnt3a protein, Wnt signaling pathway agonist (stemimmune LLC) (protein, UniProt P56704 19-352, looked up)
Protein Wnt-3a: SYPIWWSLAVGPQYSSLGSQPILCASIPGLVPKQLRFCRNYVEIMPSVAEGIKIGIQECQHQFRGRRWNCTTVHDSLAIFGPVLDKATRESAFVHAIASAGVAFAVTRSCAEGTAAICGCSSRHQGSPGKGWKWGGCSEDIEFGGMVSREFADARENRPDARSAMNRHNNEAGRQAIASHMHLKCKCHGLSGSCEVKTCWWSQPDFRAIGDFLKDKYDSASEMVVEKHRESRGWVETLRPRYTYFKVPTERDLVYYEASPNFCEPNPETGSFGTRDRTCNVSSHGIDGCDLLCCGRGHNARAERRREKCRCVFHWCCYVSCQECTRVYDVHTCK

Experiments:
[1] = test system: human hepatocytes; assay: Expansion of human hepatocytes in HM medium with, without or with replaced Wnt signaling pathway agonist (6 days); type: cell-based; conditions: 50 ng/ml Wnt3a purified protein or CHIR 0.1 μM
Text: A. Cell photographs of human hepatocytes cultured for 6 days in: HM medium containing Wnt3a conditioned medium, HM medium without Wnt3a conditioned medium, HM medium containing Wnt3a purified protein instead of Wnt3a conditioned medium, and HM medium containing CHIR instead of Wnt3a conditioned medium.
B. Fold of expansion of human hepatocytes cultured for 6 days in: HM medium containing Wnt3a conditioned medium, HM medium without Wnt3a conditioned medium, HM medium containing Wnt3a purified protein instead of Wnt3a conditioned medium, and HM medium containing CHIR instead of Wnt3a conditioned medium.
Cryopreserved human liver cells were purchased from Celsis In Vitro Technologies (Baltimore, MD, U.S.). The cryopreserved human hepatocytes were resuscitated in DMEM medium containing 10% serum, and seeded in a collagen-I-coated plate at 2*10^4 cells/cm^2. The culture plate was incubated at 37° C. in a 5% CO2, 5% O2 incubator. The medium was changed to the hepatocyte medium one day after seeding and every 3 days thereafter. After 6 days of culture, the fully grown cells were trypsinized and seeded in a collagen-I-coated plate at 3*10^4 cells/cm^2. The culture plate was incubated at 37° C. in a 5% CO2 and 5% O2 incubator.
The HM medium contains a variety of growth factors and small molecule compounds.

[2] = test system: ProliHHs
Text: (§1) The fully grown proliferating human hepatocytes are trypsinized and re-suspended in the hepatocyte medium, and seeded in a non-attached 24-well plate (Elplasia, Japan) at 5*10^5 cells/well. One day later, the medium was replaced with the hepatocyte induction medium, and the cells will slowly aggregate into cell spheres. The medium was changed every 2 days, and the induced cells were collected 10 days after the induction.
(§2) • 1) Extract cellular RNA by Trizol (Invitrogen) or RNeasy FFPE Kit (Qiagen). • 2) Obtain cDNA by M-MLV reverse transcriptase (Promega) kit, using 1 μg Trizol-extracted RNA, or 1 μg or all (according to the particular amount) of the RNA extracted by RNeasy FFPE Kit. • 3) Perform real-time quantitative PCR using SYBR Premix Ex Taq kit (TaKaRa), and detect expression of genes with ABI StepOnePlus real-time PCR system (Applied Biosystems). All Q-PCR data were performed with at least 2 repeats.
(§3) For detecting urea secretion ability of the cultured cells, supernatants of cell culture were collected after 24-hour culture and analyzed by urea assay kit (Abnova) according to its protocol.
(§4) For measurement of CYP2B6 metabolism activity of the proliferating human hepatocytes, cells subjected 10 days of hepatic induction and freshly resuscitated human hepatocytes were incubated respectively in a medium containing 100 um bupropion. Supernatants of cell culture were present to RILD Liver Company to detect the production of CYP2B6 metabolites using mass spectrometry. Standard curves were drawn using commercially purchased standards.

[3] = test system: ProliHHs; assay: In vitro hepatic maturation induction of ProliHHs (3D culture, 10 days; morphology, gene expression, CYP2B6 and urea metabolism); conditions: components added to HM to give HIM
Text: as §1, §2, §3, §4

Molecule | cell morphology and expansion fold compared with Wnt3a conditioned medium [1] | expansion of human hepatocytes when replacing Wnt3a conditioned medium in HM medium [1] | role in hepatic maturation medium (metabolic maturation, inhibition of progenitor gene expression) [2] | role in hepatic maturation medium (metabolic maturation, inhibition of progenitor gene expression) [3]
Cc1c[nH]c(-c2cnc(NCCNc3ccc(C#N)cn3)nc2-c2ccc(Cl)cc2Cl)n1 [CHIR, CHIR99021] | similar | could be expanded |  | 
C[C@@H]1C[C@H]2[C@@H]3CCC4=CC(=O)C=C[C@]4(C)[C@@]3(F)[C@@H](O)C[C@]2(C)[C@@]1(O)C(=O)CO [DEX, Dexamethasone] |  |  | key factors | 
C=C[C@@]1(C)CC(=O)[C@]2(O)[C@@]3(C)[C@@H](O)CCC(C)(C)[C@@H]3[C@H](O)[C@H](OC(C)=O)[C@@]2(C)O1 [Forskolin] |  |  |  | key factors
Oncostatin M [OSM] |  |  | key factors | 
B1 | similar | could be expanded |  | 
